ChEMBL document CHEMBL4118278, “Design, synthesis and biological evaluation of deuterated Vismodegib for improving pharmacokinetic properties” (Bioorg Med Chem Lett, 2018)

Assays:
Format in all cases: ADME, organism-based
Details in all cases: in vivo
[1] = AUC (0 to infinity) in CD-1 mouse at 5 mg/kg, po administered as single dose by LC-MS/MS analysis; design: dose 5 mg/kg, route oral, time infinity
[2] = Tmax in CD-1 mouse at 5 mg/kg, po administered as single dose by LC-MS/MS analysis
[3] = AUC (0 to t) in CD-1 mouse at 5 mg/kg, po administered as single dose by LC-MS/MS analysis
[4] = Cmax in CD-1 mouse at 5 mg/kg, po administered as single dose by LC-MS/MS analysis; design: dose 5 mg/kg, route oral
[5] = Half life in CD-1 mouse at 5 mg/kg, po administered as single dose by LC-MS/MS analysis

Row | SMILES | AUC(0-inf) [1] [ng·h/mL] | Tmax [2] [h] | AUC(0-t) [3] [ng·h/mL] | Cmax [4] [ng/mL] | half-life [5] [h]
1 | [2H]c1nc(-c2cc(NC(=O)c3ccc(S(C)(=O)=O)cc3Cl)ccc2Cl)c([2H])c([2H])c1[2H] | 17100 | 1 | 6510 | 1870 | 8.55
2 | [2H]c1cc(Cl)c(-c2nc([2H])c([2H])c([2H])c2[2H])c([2H])c1NC(=O)c1ccc(S(C)(=O)=O)cc1Cl | 6110 | 1 | 6110 | 972 | 2.56
3 | [2H]c1cc(Cl)c(-c2ccccn2)c([2H])c1NC(=O)c1ccc(S(C)(=O)=O)cc1Cl | 8290 | 1 | 6280 | 1610 | 2.82
4 | CS(=O)(=O)c1ccc(C(=O)Nc2ccc(Cl)c(-c3ccccn3)c2)c(Cl)c1 [VISMODEGIB] | 7660 | 1 | 4050 | 854 | 5.62
